In brackets after ≈: the same amount, converted by molar mass. Entries after “also recorded” stand apart in the source; their conditions may differ.
Legend:
[1] = system: esterase (bioH, yjfP, frsA, ybfF, yfbB, ypfH, yeiG, or yqiA) deletion mutants of E. coli; assay type: cell-based; conditions: for reduction of antibacterial activity by deletion of the cytoplasmic esterase: single esterase gene deletion
Method: Bacteria culture and inhibitory activity assay: Single esterase (BioH, YjfP, FrsA, YbfF, YfbB, YqiA, YeiG, or and YpfH) deletion mutants were purchased from Dharmacon Horizon Discovery (Cambridge, United Kingdom). The K12 wild-type E. coli strain (MG1655) was cultured in autoclaved LB medium (25 g/L LB broth/water) in a shaker-incubator overnight to stationary growth phase, and then sub-cultured in the same medium after dilution to OD600 of 0.05. Compounds were added at different concentrations. The mixture of bacteria and compounds were placed (200 μL/well) into 96-well clear flat bottom plates. In all plates, the OD600 was measured before and after 16 hour incubation at 37° C.
(§1) Bacteria culture and inhibitory activity assay: Single esterase (bioH, frsA, ybfF, yfbB, yqiA, yeiG, or ypfH) deletion mutants, bacterial transporter (ydgR, fepA and ompF) deletion mutants and the efflux pump (acrA) deletion mutant were all purchased from Dharmacon Horizon Discovery (Cambridge, United Kingdom). The K12 wild-type E. coli strain (MG1655) was cultured in autoclaved LB medium (25 g/L LB broth/water) in a shaker-incubator overnight to stationary growth phase, and then sub-cultured in the same medium after dilution to OD600 of 0.05. Compounds were added at different concentrations. The mixture of bacteria and compounds were placed (200 μL/well) into 96-well clear flat bottom plates. In all plates, the OD600 was measured before and after a 16 hour incubation at 37° C.

HepG2 cells = assay: Cell viability assay (MTT), HepG2; assay type: cell-based; conditions: 20 μM, 24 hours
[2] = system: double esterase (BioH and YjfP) deletion mutant of E. coli; assay: Antibacterial activity against double esterase deletion mutant; assay type: cell-based
Method: (§2) Bacteria culture and inhibitory activity assay: Single esterase (BioH, YjfP, FrsA, YbfF, YfbB, YqiA, YeiG, or and YpfH) deletion mutants were purchased from Dharmacon Horizon Discovery (Cambridge, United Kingdom). […] Compounds were added at different concentrations.
To examine the roles of different intrabacterial esterases on the hydrolysis of CLsuGG, the activities of CLsuGG against eight E. coli mutants that have one of bacterial esterase genes (i.e., BioH, YjfP, FrsA, YbfF, YeiG, YfbB, YpfH or YqiA) deleted was measured. […] To confirm the role of intrabacterial esterases, a double mutant E. coli was generated, with the deletion of BioH and YjfP genes (FIGS. 5C-5D). […] These studies confirm that, after CLsuGG enters E. coli, various esterases in bacterial cytoplasm rapidly convert CLsuGG to the active antibiotic agent (i.e., CL).

[3] = system: YdgR transporter knockout mutants of E. coli; assay: Antibacterial activity against YdgR transporter knockout mutant; assay type: cell-based; conditions: YdgR mutant versus wild-type E. coli
Method: as §2
To verify whether bacterial oligopeptide transporters are involved in the uptake of CLsuGG, the activities of CLsuGG against the YdgR mutant and wild-type E. coli was compared (FIG. 4A). The deletion of YdgR, an inner membrane (IM) proton-coupled transporter for uptaking di- and tripeptides (Prabhala et al., “The Prototypical Proton-Coupled Oligopeptide Transporter YdgR from Escherichia coli Facilitates Chloramphenicol Uptake into Bacterial Cells,” J. Biol. Chem. 293(3):1007-1017 (2018), which is hereby incorporated by reference in its entirety), indeed rescues the bacteria, i.e., increasing cell viability for about 10%.

[4] = system: wild type E. coli strain (K-12); assay: Bacteria culture and inhibitory activity assay (MIC); assay type: cell-based; conditions: for Effect of addition of exogenous PLE on inhibitory efficacy: porcine liver esterase 1 U/mL
Method: as §2
Compounds were added at different concentrations.

HEK293 cells = assay: Cell viability assay (MTT), HEK293; conditions: 20 μM, 24 hours
Water solubility = assay type: physicochemical
HS-5 cells = assay: Cell viability assay (MTT), HS-5; assay type: cell-based, human; conditions: 24 hours
E. coli (K-12) lysate = assay: Hydrolysis assay with E. coli lysate; assay type: in vitro ADME; conditions: compound 200 μM; for apparent first-order rate constant of hydrolysis: E. coli lysate 0.1 U/mL, pH 7.4 PBS, 37° C.
Method: (§3) Hydrolysis assay: Wild-type E. coli strains (K12) were harvested by centrifugation and the cell pellets were lysed using a sonic device. After centrifugation, the supernatant was collected and the proteinase inhibitor was added in the E. coli lysate. The concentration of E. coli lysate was normalized by the fluorescence intensity of 5-carboxyfluorescein diacetate (CFDA). Briefly, different concentrations of CES (4 U/mL, 2 U/mL, 1 U/mL, 0.5 U/mL, 0.25 U/mL, 0.125 U/mL, 0.0625 U/mL, 0.03125 U/mL, 0.015625 U/mL and 0 U/mL) and different amount of E. coli lysates were prepared in PBS buffer. Followed by, 25 μM of CFDA was added in and incubated at room temperature for 1 hour. Then the fluorescence was tested to draw a fluorescence-concentration dependent curve for figuring out the concentration of E. coli lysates. Solutions of CLsuGG (200 μM) were prepared in pH 7.4 PBS buffer. CES and E. coli lysate (0.1 U/mL) were added and incubated with above solutions at 37° C. for 24 hours. At different time points, the solution was taken out, extracted with an equal volume of butanol, concentrated to dryness, and resuspended with butanol for HPLC analysis. HPLC was performed with Agilent 1100 Series Liquid Chromatograph equipped with an XTerra C18 reverse phase column and Variable Wavelength Detector. The hydrolyzed mixture resuspended in 1 mL of butanol was injected to HPLC mobile phase (0.1% trifluoroacetic acid, the starting ratio: 10% acetonitrile and 90% water). The system was run at a flow rate of 10 mL/min.
as §3, with “analysis.” for “analysis. HPLC was performed with Agilent 1100 Series Liquid Chromatograph equipped with an XTerra C18 reverse phase column and Variable Wavelength Detector. The hydrolyzed mixture resuspended in 1 mL of butanol was injected to HPLC mobile phase (0.1% trifluoroacetic acid, the starting ratio: 10% acetonitrile and 90% water). The system was run at a flow rate of 10 mL/min.”

carboxylesterase (CES) = assay: Hydrolysis assay with exogenous carboxylesterase; assay type: in vitro ADME, porcine; conditions: CES 0.1 U/mL
Text: Experimental materials and instruments. All the solvents and chemical reagents were used directly as received from the commercial sources without further purification unless otherwise stated. Carboxylesterase (CES) from porcine liver was purchased from Sigma-Aldrich (lyophilized powder, >15 units/mg solid; Unit definition: One unit will hydrolyze 1.0 μmole of ethyl butyrate to butyric acid and ethanol per min at pH 8.0 at 25). CLsuGG, CLsuG, CLsuGGG were purified with Agilent 1100 Series Liquid Chromatography system, equipped with an XTerra C18 RP column and Variable Wavelength detector.
as §3, with “Briefly, different concentrations of CES (4 U/mL, 2 U/mL, 1 U/mL, 0.5 U/mL, 0.25 U/mL, 0.125 U/mL, 0.0625 U/mL, 0.03125 U/mL, 0.015625 U/mL and 0 U/mL) and different amount of E. coli lysates were prepared in PBS buffer. Followed by, 25 μM of CFDA was added in and incubated at room temperature for 1 hour.” left out, “CES and E. coli lysate (0.1 U/mL) were added and incubated with above solutions at 37° C. for 24 hours.” left out

[5] = system: acrA efflux pump deletion mutant of E. coli; conditions: acrA mutant versus wild-type E. coli
Method: as §1
(§4) Several representative peptides conjugating CLsu (e.g., 1c, 1d, 2b and 2c) were chosen to study the effects of conjugated peptides on the uptake of the prodrugs.

[6] = system: ydgR, fepA, ompF transporter deletion mutants of E. coli; conditions: mutants versus wild-type E. coli
Method: as §1, §4

[7] = Stability in human serum (LC-MS); assay type: in vitro ADME; conditions: human serum, 200 μM, 37° C.
E. coli K-12 = conditions: E. coli K-12, literature values; cited from earlier work

SMILES | MIC (μM) ([4]; wild type E. coli (K-12)) | apparent first-order rate constant of hydrolysis (E. coli (K-12) lysate) | reduction of antibacterial activity by deletion of the cytoplasmic esterase [1] | reduction of the viabilities of the acrA deletion mutant treated by the conjugates [5] | effect of deletion of ydgR, fepA, or ompF on treated bacteria [6] | Effect of addition of exogenous PLE on inhibitory efficacy [4] | Compounds remaining (%) 0 h [7] | Compounds remaining (%) 2 h [7] | Compounds remaining (%) 24 h [7] | other results
O=C(O)CNC(=O)CNC(=O)CCC(=O)OCC(NC(=O)C(Cl)Cl)C(O)c1ccc([N+](=O)[O-])cc1 (centres unmarked) [CLsuGG] | 20 µM (≈ 10.7 µg/mL) | -1.868 h⁻¹ | – | – | – | – | – | – | – | reduction of antibacterial activity by single esterase gene deletion [1]: slightly; cytotoxicity / cell viability of HepG2 cells (HepG2 cells): hardly altered the cytotoxicity of CL; antibacterial activity relative to the activity against wild type E. coli [2]: 50%; increase of cell viability by deletion of YdgR [3]: about 10%; Effect of addition of CES on the MIC value ([4]; exogenous CES): hardly affected; MIC (μg/mL) ([4]; wild type E. coli (K-12)): 10.7 µg/mL (≈ 19.9 µM); cytotoxicity / cell viability of HEK293 cells (HEK293 cells): hardly altered the cytotoxicity of CL; water solubility (Water solubility): soluble; cytotoxicity / cell viability of HS-5 cells (HS-5 cells; 20 μM): largely innocuous; also recorded: reduced toxicity; time to complete hydrolysis (E. coli (K-12) lysate; intrabacterial esterases 0.1 U/mL): ≤ 2 h; time to complete hydrolysis (carboxylesterase (CES)): more than 12 hours; conversion (carboxylesterase (CES); after 2 hours): around 70%; apparent first-order rate constant of hydrolysis (carboxylesterase (CES); compound 200 μM): -0.443 h⁻¹
O=C(CCC(=O)OCC(NC(=O)C(Cl)Cl)C(O)c1ccc([N+](=O)[O-])cc1)NCC(=O)NC(CO)C(=O)O (centres unmarked) [Compound 1c] | 20 µM (≈ 11.3 µg/mL) | 3.763 h⁻¹ | about 20% | 30% | hardly rescues the bacteria | hardly changes | 100% | 0% | 0% | –
O=C(O)CNC(=O)C(CO)NC(=O)CCC(=O)OCC(NC(=O)C(Cl)Cl)C(O)c1ccc([N+](=O)[O-])cc1 (centres unmarked) [Compound 1d] | 40 µM (≈ 22.7 µg/mL) | 1.267 h⁻¹ | ~10% | 40% | hardly rescues the bacteria | hardly changes | 100% | 16.7% | 0% | –
NCCCCC(NC(=O)C(CCCCN)NC(=O)CCC(=O)OCC(NC(=O)C(Cl)Cl)C(O)c1ccc([N+](=O)[O-])cc1)C(=O)O (centres unmarked) [Compound 2b] | 200 µM (≈ 136 µg/mL) | 0.317 h⁻¹ | about 20% | 20% | hardly rescues the bacteria | hardly changes | 100% | 52.9% | 0% | –
NCCCCC(NC(=O)C(CCCCN)NC(=O)CCC(=O)OCC(NC(=O)C(Cl)Cl)C(O)c1ccc([N+](=O)[O-])cc1)C(=O)O (centres unmarked) [Compound 2c] | 200 µM (≈ 136 µg/mL) | 0.310 h⁻¹ | about 20% | 50% | hardly rescues the bacteria | hardly changes | 100% | 49.2% | 0% | –
COc1cc(Cc2cnc(N)nc2N)cc(OC)c1OC [trimethoprim] | – | – | – | – | – | – | – | – | – | MIC (E. coli K-12): 1 µg/mL (≈ 3.44 µM); cytotoxicity of control compounds against HS-5 cells (HS-5 cells; around MIC values (0.5 μM)): relatively low cytotoxicity

Reference: patent publication US12622975B2, “Peptide-conjugated prodrugs” (priority 2019, dated 2026)
